Literature values as cited in US6461603B2, “Water-soluble polymer conjugates of artelinic acid” (Shearwater Corporation, priority 2000, dated 2002).

Row | SMILES | water solubility (background statement) | solubility at physiological pH (physiological pH, higher pH required for desirable solubility)
1 | C[C@@H]1CC[C@H]2[C@@H](C)C(OCc3ccc(C(=O)O)cc3)O[C@@H]3O[C@]4(C)CC[C@@H]1[C@]32OO4 (some centres unmarked) [artelinic acid] | low | 
2 | C[C@H]1[C@@H](OCc2ccc(C(=O)O)cc2)O[C@@H]2O[C@]3(C)CC[C@H]4[C@H](C)CC[C@@H]1[C@@]24OO3 [sodium artelinate] |  | not highly soluble
